{"source": "paper PMC6921279", "about": "(Frontiers in Endocrinology, 2019)", "key": {"[1]": {"system": "EGF-stimulated ERK1/2 phosphorylation", "assay": "Modulation of EGF-stimulated ERK1/2 phosphorylation in COS-7 cells", "format": "cell-based", "conditions": "GM6001 10 μM, 30 min pretreatment; 10 ng/ml EGF, 10 min", "protocol": "(§1) COS-7 cells (from the American Type Culture Collection) were cultured at 37°C in a humidified atmosphere of 95% air, 5% CO2, in DMEM supplemented with 10% FBS, 100 μg/ml streptomycin, and 100 units/ml penicillin (COS-7 growth medium). Transient transfections were performed using LipofectAMINE (Life Technologies: Gaithersburg, MD) as described previously ([27]). Cells were seeded at 8 × 10^5 cells/10-cm dish in COS-7 medium and cultured for 3 days before transfection. COS-7 cells were transfected in 5 ml/dish OptiMEM containing 10 μg/ml LipofectAMINE with empty vector, pcDNA3 encoding the HA-CRF1R or the HA-CRF1R-Δ386 mutant. […] After replacing the transfection medium with fresh growth medium, transfected COS-7 cells were cultured for 1 day. […]\n(§2) The protocols for measuring total and phosphorylated ERK1/2, c-Src, PYK2, Akt, and EGFR have been previously published ([28], [29]). […] The labeled bands were quantified using the Quantity One 4.6.3 software program (Bio-Rad).\nFigure 3 Involvement of EGFR transactivation in CRF-stimulated ERK1/2 phosphorylation. […] Total cell lysates were separated by SDS-PAGE and analyzed by immunoblotting with anti-p-ERK1/2 Thr^202/Tyr^204 (A–D) or anti-p-EGFR Tyr^1068 (E), as described in Materials and Methods. ERK1/2 and EGFR phosphorylation were quantitated by densitometry, and mean values were plotted from three to five independent experiments. […]"}, "[2]": {"system": "CRF1R-mediated ERK1/2 phosphorylation", "assay": "Modulation of CRF-stimulated ERK1/2 phosphorylation in COS-7 cells expressing HA-CRF1R", "format": "cell-based", "protocol": "(§3) Plasmid pRK5 encoding the carboxyl terminus of βARK that contains its βγ-binding domain (ct-βARK) was kindly provided by Dr. W. Koch (Center for Translational Medicine, Temple University, Philadelphia, PA), which is a scavenger for G protein βγ subunits ([25]). […] Plasmid pUSEamp encoding dominant-negative Akt-K179M (dn-Akt) was from Upstate Biotechnology (Lake Placid, NY).\n(§4) COS-7 cells (from the American Type Culture Collection) were cultured at 37°C in a humidified atmosphere of 95% air, 5% CO2, in DMEM supplemented with 10% FBS, 100 μg/ml streptomycin, and 100 units/ml penicillin (COS-7 growth medium). Transient transfections were performed using LipofectAMINE (Life Technologies: Gaithersburg, MD) as described previously ([27]). Cells were seeded at 8 × 10^5 cells/10-cm dish in COS-7 medium and cultured for 3 days before transfection. COS-7 cells were transfected in 5 ml/dish OptiMEM containing 10 μg/ml LipofectAMINE with empty vector, pcDNA3 encoding the HA-CRF1R or the HA-CRF1R-Δ386 mutant. […] After replacing the transfection medium with fresh growth medium, transfected COS-7 cells were cultured for 1 day. Subsequently, cells were re-seeded in 6-well plates and cultured for an additional day prior to the experiment.\n(§5) The protocols for measuring total and phosphorylated ERK1/2, c-Src, PYK2, Akt, and EGFR have been previously published ([28], [29]). After cells were cultured to 60–70% confluence, they were serum-deprived for 24 h. On the day of the experiment, cells were treated with the indicated ligands and inhibitors. […] After treatment, cells were placed on ice, the media was aspirated, and the cells were washed twice with ice-cold PBS and lysed in 100 μl of Laemmli sample buffer 1X. The lysates were briefly sonicated, heated at 95°C for 5 min, and centrifuged for 5 min at 14,000 rpm. Resulting supernatants were loaded in separate lanes of a 10% SDS-PAGE gels and electrophoresed. Next, Western transfer on to PDVF membranes was completed. The Western blots were then probed with specific antibodies targeting phosphorylated and non-phosphorylated forms of ERK1/2, c-Src, PYK2, Akt, and EGFR for primary immunodetection. After blots were probed with horseradish peroxidase-conjugated secondary antibody, protein bands were visualized with enhanced chemiluminescence ECL reagent (Amersham Pharmacia Biotech, Piscataway, NJ or Pierce Biotechnology, Rockford, IL) and scanned using the GS-800 Calibrated Imaging Densitometer (Bio-Rad). The labeled bands were quantified using the Quantity One 4.6.3 software program (Bio-Rad).\nTotal cell lysates were separated by SDS-PAGE and analyzed by immunoblotting with anti-p-ERK1/2 Thr^202/Tyr^204, as described in Materials and Methods. ERK1/2 phosphorylation was quantitated by densitometry, and mean values were plotted from five independent experiments.\n(§6) Total cell lysates were separated by SDS-PAGE and analyzed by immunoblotting with anti-p-ERK1/2 Thr^202/Tyr^204 (A–D) or anti-p-EGFR Tyr^1068 (E), as described in Materials and Methods. ERK1/2 and EGFR phosphorylation were quantitated by densitometry, and mean values were plotted from three to five independent experiments.\nTotal cell lysates were separated by SDS-PAGE and analyzed by immunoblotting with anti-p-ERK1/2 Thr^202/Tyr^204, as described in Materials and Methods. ERK1/2 phosphorylation was quantitated by densitometry, and mean values were plotted from three to five independent experiments."}, "[3]": {"system": "PMA-stimulated ERK1/2 phosphorylation", "assay": "Modulation of PMA-stimulated ERK1/2 phosphorylation in COS-7 cells", "format": "cell-based", "conditions": "GM6001 10 μM, 30 min pretreatment; 100 nM PMA, 15 min", "protocol": "COS-7 cells (from the American Type Culture Collection) were cultured at 37°C in a humidified atmosphere of 95% air, 5% CO2, in DMEM supplemented with 10% FBS, 100 μg/ml streptomycin, and 100 units/ml penicillin (COS-7 growth medium). Transient transfections were performed using LipofectAMINE (Life Technologies: Gaithersburg, MD) as described previously ([27]). Cells were seeded at 8 × 10^5 cells/10-cm dish in COS-7 medium and cultured for 3 days before transfection. COS-7 cells were transfected in 5 ml/dish OptiMEM containing 10 μg/ml LipofectAMINE with empty vector, pcDNA3 encoding the HA-CRF1R or the HA-CRF1R-Δ386 mutant. […]\nas §2\nFigure 2 CRF-induced ERK1/2 phosphorylation is dependent on Gi protein. […] Total cell lysates were separated by SDS-PAGE and analyzed by immunoblotting with anti-p-ERK1/2 Thr^202/Tyr^204, as described in Materials and Methods. ERK1/2 phosphorylation was quantitated by densitometry, and mean values were plotted from five independent experiments. […]\nTotal cell lysates were separated by SDS-PAGE and analyzed by immunoblotting with anti-p-ERK1/2 Thr202/Tyr204, as described in materials and methods. […]"}, "[4]": {"system": "endogenous EGFR in COS-7 cells", "assay": "EGF-stimulated ERK1/2 phosphorylation in COS-7 cells expressing HA-CRF1R", "format": "cell-based", "protocol": "as §1, §2, §6"}, "[5]": {"system": "CRF1R-mediated Akt phosphorylation", "assay": "CRF-induced Akt phosphorylation at Ser473 in COS-7 cells expressing HA-CRF1R", "format": "cell-based, human", "conditions": "100 nM CRF, 5 min", "protocol": "as §3, §4\nas §5, with “After blots were probed with horseradish peroxidase-conjugated secondary antibody, protein bands were visualized with enhanced chemiluminescence ECL reagent (Amersham Pharmacia Biotech, Piscataway, NJ or Pierce Biotechnology, Rockford, IL) and scanned using the GS-800 Calibrated Imaging Densitometer (Bio-Rad).” left out\nFigure 7 CRF mediates Akt activation. […] Total cell lysates were separated by SDS-PAGE and analyzed by immunoblotting with anti-p-Akt Ser^473, as described in Materials and Methods. Akt phosphorylation was quantitated by densitometry, and mean values were plotted from three to five independent experiments. […]"}, "[6]": {"target": "HA-epitope tagged human CRF1 receptor (human)", "assay": "co-IP; HA-CRF1R immunoprecipitated with anti-HA monoclonal antibody (HA.11) and protein A/G PLUS-Agarose from 1% Nonidet P-40 lysates (50 mM Tris-HCl, 150 mM NaCl, pH 7.4) of transfected COS-7 cells, serum-deprived 24 h, untreated or treated with 100 nM CRF for 10 min at 37°C; blots probed for EGFR and HA, stripped and reprobed for c-Src; densitometry"}, "[7]": {"target": "epidermal growth factor receptor (African green monkey (endogenous in COS-7))"}}, "note": "pIC50: −log10 of the molar value."}
{"compound": "CNC(=O)[C@H](Cc1c[nH]c2ccccc12)NC(=O)[C@@H](CC(=O)NO)CC(C)C", "note": "[GM6001]", "values": [{"measurement": "effect on EGF-induced ERK1/2 phosphorylation", "setting": "[1]", "value": "significantly attenuated ERK1/2 phosphorylation induced by PMA but not EGF"}, {"measurement": "effect on basal and CRF-stimulated ERK1/2 phosphorylation", "setting": "[2]; GM6001 0–20 μM, 30 min pretreatment, 100 nM CRF, 5 min", "value": "not altered"}, {"measurement": "effect on PMA-induced ERK1/2 phosphorylation", "setting": "[3]", "value": "significantly attenuated ERK1/2 phosphorylation induced by PMA"}]}
{"compound": "EGF: epidermal growth factor", "values": [{"measurement": "persistence of ERK1/2 phosphorylation", "setting": "[4]; 10 ng/ml EGF", "value": "at least 30 min"}, {"measurement": "EC50 for EGF-induced ERK1/2 phosphorylation", "setting": "[4]; EGF 0–100 ng/ml, 10 min", "value": 0.23, "unit": "ng/mL"}]}
{"compound": "O=c1cc(N2CCOCC2)oc2c(-c3ccccc3)cccc12", "note": "[LY294002]", "values": [{"measurement": "effect on CRF-stimulated phosphorylation of ERK1/2", "setting": "[2]; LY294002 pretreatment (discussion)", "value": "inhibited CRF-stimulated phosphorylation of ERK1/2 and Akt"}, {"measurement": "effect on CRF1R-mediated Akt signaling activation", "setting": "[5]; LY294002 10 μM, 30 min pretreatment", "value": "abolished CRF1R-mediated Akt signaling activation"}]}
{"compound": "Nc1ncnc2c1ncn2[C@@H]1O[C@@H]2COP(O)(=S)O[C@H]2[C@H]1O", "note": "(some centres unmarked) [Rp-cAMP]", "values": [{"measurement": "effect on CRF-stimulated ERK1/2 activation", "setting": "[2]; Rp-cAMP 0–100 μM, 30 min pretreatment, 100 nM CRF, 5 min", "value": "the magnitude of CRF1R-mediated activation of ERK1/2 was similar"}]}
{"compound": "COc1cc2ncnc(Nc3cccc(Cl)c3)c2cc1OC", "note": "[AG1478]", "values": [{"measurement": "effect on CRF-stimulated ERK1/2 phosphorylation", "setting": "[2]; AG1478 100 nM, 100 nM CRF, 5 min", "value": "abolished phosphorylation of ERK1/2"}, {"measurement": "pIC50", "setting": "[2]; COS-7, AG1478 0–1,000 nM, 30 min pretreatment, 100 nM CRF, 5 min, read-out: IC50, inhibition of CRF-stimulated ERK1/2 phosphorylation", "value": 8.00}, {"measurement": "inhibition at 0.1 µM", "setting": "[2]; Homo sapiens, COS-7, 100 nM AG1478, 30 min pretreatment, 100 nM CRF, 5 min, read-out: inhibition of CRF-induced maximal ERK1/2 phosphorylation", "value": "~80", "unit": "%"}, {"measurement": "decrease of CRF-stimulated Akt phosphorylation", "setting": "[5]; AG1478 100 nM", "value": 25, "unit": "%"}]}
{"compound": "dn-Akt: plasmid pUSEamp encoding dominant-negative Akt-K179M", "values": [{"measurement": "effect on ERK1/2 activation by CRF", "setting": "[2]; dn-Akt (K179M) co-transfection, 100 nM CRF", "value": "had no significant effect on ERK1/2 activation after stimulation with CRF"}]}
{"compound": "c-Src (enzyme)", "values": [{"measurement": "fold increase of co-precipitated Src over control (100 nM CRF, 10 min, against unstimulated cells)", "setting": "[6]", "value": 8, "unit": "fold"}]}
{"compound": "epidermal growth factor receptor", "values": [{"measurement": "fold increase of co-precipitated EGFR over control (100 nM CRF, 10 min, against unstimulated cells)", "setting": "[6]", "value": 2.5, "unit": "fold"}]}
{"compound": "CNC(=O)[C@H](Cc1ccccc1)NC(=O)[C@H](CC(C)C)[C@H](CSc1cccs1)C(=O)NO", "note": "[batimastat]", "values": [{"measurement": "effect on basal and CRF-stimulated ERK1/2 phosphorylation", "setting": "[2]; batimastat 5 μM, 30 min pretreatment, 100 nM CRF, 5 min", "value": "not altered"}]}
{"compound": "epidermal growth factor (from UniProt P01133 971-1023) (ligand)", "values": [{"measurement": "EC50 of EGF-induced ERK1/2 phosphorylation, COS-7 cells (endogenous EGFR), EGF 0-100 ng/ml for 10 min, immunoblot densitometry", "setting": "[7]", "value": 0.23, "unit": "ng/mL"}]}
